Data on 13 substances can be found in publication PMC10303687 (Protein Science : A Publication of the Protein Society, 2023).

The target in assay [1] is T1, MDM2 D. rerio (SWIB domain) (Danio rerio, UniProt O42354).
T1 construct: N-terminal fusion: NusA-TEV-His6-PreScission (pSY10) or His6-GST-PreScission (pETM33); made in house; host or cells: Escherichia coli BL21 (DE3) pLys or BL21 (DE3)
As to the kind of experiment: Stopped-flow binding kinetics (kon, koff; KD = koff/kon). The following applies: for kon: MDM2 D. rerio 0.5–2 μM mixed with 1–10 μM peptide, curve fitting error; for kon / koff: pH 7.4; for koff: complex 1 μM:1 μM displaced by 10–20 μM dansylated human p53TAD, SD of two or three replicates.

The target of assay [2] is T1, MDM2 D. rerio (SWIB domain). As to the kind of experiment: Fluorescence polarization displacement of FITC-labeled human p53TAD 15–26 (IC50 to KD/Ki). The note with it: FP displacement; low constant FITC-labeled p53TADHuman and MDM2 D. rerio, displaced by excess peptide; room temperature, pH 7.4; KD calculated from IC50; mean ± SEM. It is filed as binding. Here is the method: FP can detect weak affinities (K D values in the high μM range), although the accuracy is lower than for the other methods. In FP experiments we observed direct binding using a FITC‐labeled p53TAD peptide and used unlabeled peptides containing the binding motif to displace the labeled one. FP experiments were performed at room temperature using the same buffer as kinetic experiments. […] The polarization was measured at excitation/emission wavelengths of 485/535 nm on a SpectraMax iD5 plate reader. […] Errors were calculated as standard error of mean (SEM) of calculated K D values for the displacer peptides resulting from independent fit of IC50 values for the replicate measurements. […]
Supplementary Excel File 2. […] IC50 values were determined as described in the materials section. The theory behind the conversion of IC50 values to Ki values (=KD) is described in Nikolovska-Coleska, et al., Development and optimization of a binding assay for the XIAP BIR3 domain using fluorescence polarization. […]

Assay [3] addresses T2, MDM2 H. sapiens (SWIB domain) (Homo sapiens, UniProt Q00987).
T2 construct: The reconstructed MDM2 variants used in the present study correspond to residues 17–125 of human MDM2; N-terminal fusion: NusA-TEV-His6-PreScission (pSY10) or His6-GST-PreScission (pETM33); made in house; host or cells: Escherichia coli BL21 (DE3) pLys or BL21 (DE3)
As to the kind of experiment: Stopped-flow binding kinetics (kon, koff; KD = koff/kon). The note with it: 10°C; for koff: pre-formed complex 1 μM:1 μM displaced by 10–20 μM dansylated human p53TAD, pH 7.4, SD of two or three replicates; for kon: pH 7.4, MDM2 H. sapiens 0.5–2 μM mixed with 1–10 μM p53TAD, kobs vs concentration, pH 7.4, curve fitting error.

The target of assay [4] is MDM2 T. adhaerens (SWIB domain). As to the kind of experiment: Fluorescence polarization displacement of FITC-labeled human p53TAD 15–26 (IC50 to KD/Ki). The note with it: FP displacement, FITC-labeled p53TAD H. sapiens 15–26 6 or 10 nM and MDM2 T. adhaerens 50 μM constant, dilution series of native p53TAD, room temperature, pH 7.4. Type of assay: binding, Trichoplax adhaerens. How it is done:
FP can detect weak affinities (K D values in the high μM range), although the accuracy is lower than for the other methods. In FP experiments we observed direct binding using a FITC‐labeled p53TAD peptide and used unlabeled peptides containing the binding motif to displace the labeled one. FP experiments were performed at room temperature using the same buffer as kinetic experiments. For saturation experiments the FITC labeled human peptide was held at a constant concentration of 6 or 10 nM and mixed with the 1:1 dilution series of different MDM2 proteins (the highest concentration of proteins were 89, 37, 50, 22, and 7.3 μM for T. adhaerens, M. trossulus, I. scapularis, L. camtschaticum and H. sapiens MDM2, respectively) in black, non‐binding surface, flat bottom 96‐well plates (Corning Life Sciences). The polarization was measured at excitation/emission wavelengths of 485/535 nm on a SpectraMax iD5 plate reader. […] The resulting displacement curve was fit to a sigmoidal dose‐response (variable slope) equation to obtain an IC50 value, which was in turn used to calculate K D values for the competing peptides as described previously(Nikolovska‐Coleska et al., [2004]) (Excel File 2 in Data S1). Errors were calculated as standard error of mean (SEM) of calculated K D values for the displacer peptides resulting from independent fit of IC50 values for the replicate measurements.
Supplementary Excel File 1. Sequences of constructs used in the experiments. The sequence and name for each interaction motif in p53TAD and MDM2 SWIB domain used in binding experiments in the study.
Supplementary Excel File 2. Calculation of Ki from IC50 values. IC50 values were determined as described in the materials section. The theory behind the conversion of IC50 values to Ki values (=KD) is described in Nikolovska-Coleska, et al., Development and optimization of a binding assay for the XIAP BIR3 domain using fluorescence polarization. […]
p53TAD. The posterior probability is shown for each amino acid for each position for the […]
Supplementary Text File 1. Fasta file for p53TAD. […]
(Fluorescence polarisation rises when a labelled molecule tumbles more slowly, as on binding a larger partner.)

Entries after “also recorded” stand apart in the source; their conditions may differ. Ends that are not written are not given here.

T2 sequence (Q00987 17-125): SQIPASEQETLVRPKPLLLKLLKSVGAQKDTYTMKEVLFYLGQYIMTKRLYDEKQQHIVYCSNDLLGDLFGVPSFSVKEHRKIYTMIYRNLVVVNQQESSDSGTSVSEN
T1 sequence (O42354 19-102 limits assumed): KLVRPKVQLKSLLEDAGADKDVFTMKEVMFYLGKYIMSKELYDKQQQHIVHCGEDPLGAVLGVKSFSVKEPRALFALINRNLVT

Take “Ac-DSQEFAELWEKN (N-terminus assumed) [p53TAD D. rerio ^14–26]”: the “K D” value in assay [1] (MDM2 D. rerio, KD = koff/kon, stopped-flow, 10°C, 20 mM sodium phosphate pH 7.4, 150 mM NaCl, 1 mM TCEP, propagated error) is on record as “absence of interaction; also recorded: non‐measurable affinity”.

As for Ac-EGPTFEHLWSTL [p73TAD D. rerio], binding in assay [1] was put at a Kd of 0.12 ± 0.01 µM. The kon (commonly a measure of how fast the partners come together) in assay [1] (stopped-flow, 10°C) turned out to be 3.2e+07 ± 1e+06 M⁻¹ s⁻¹. Also, in assay [1] (MDM2 D. rerio, 10°C), the koff (usually the first-order rate constant of dissociation) was 3.7 ± 0.06 s⁻¹. Consider Ac-GQDVLNQLLEML [p63TAD D. rerio], for which, in assay [2], the Kd (commonly the free concentration of one partner at which half of the binding sites on the other are occupied at equilibrium, for simple one-to-one binding) was 130 ± 2 µM. With Ac-SQDTFSDLWNQL [p53TAD1R ^AltAll], in assay [3] (MDM2 H. sapiens), the koff was determined as 0.7 ± 0.04 s⁻¹. Besides, the kon in assay [3] was 2.9e+07 ± 2e+06 M⁻¹ s⁻¹.

“Ac-SQESFSDLWNLL [p53TADFishes/Tetrapods ^AltAll]” yielded a koff in assay [3] (MDM2 H. sapiens) of 0.52 ± 0.04 s⁻¹. The kon in assay [3] came out at 2.73e+07 ± 700000 M⁻¹ s⁻¹.

Take “Ac-SQETFDFLWKSL [p53TADBilateria ^AltAll]”: the koff in assay [3] (MDM2 H. sapiens) was 2.6 ± 0.3 s⁻¹. This substance came in with a kon in assay [3] of 1.5e+07 ± 1e+06 M⁻¹ s⁻¹. For the substance Ac-SQETFEYLWNTL [p53TAD M. trossulus], the “K D” value in assay [3] (MDM2 H. sapiens, KD = koff/kon, Trp fluorescence ex 280 nm/em 330 ± 25 nm, 20 mM sodium phosphate pH 7.4, 150 mM NaCl, 1 mM TCEP, propagated error, 12-mers show non-native high affinity) is “high affinity”.

In turn, Ac-SQETFNHLWNML [p53TAD1R ^ML] returned a koff in assay [3] (MDM2 H. sapiens) of 1.37 ± 0.06 s⁻¹. In assay [3], this substance displayed a kon of 1.67e+07 ± 900000 M⁻¹ s⁻¹. For Ac-SQETFNHLWNTL [p53TADBilateria ^ML] the same measures were 11 ± 2 s⁻¹ and 1.9e+07 ± 1e+06 M⁻¹ s⁻¹.

In assay [3] (MDM2 H. sapiens), “Ac-SQETFSDLWNLL [p53TADReptiles/Mammals ^ML]” showed a koff of 0.32 ± 0.04 s⁻¹. The substance also returned an association rate constant (kon) in assay [3] of 4.2e+07 ± 2e+06 M⁻¹ s⁻¹. As for “Ac-SQETFSDLWNML [p53TADFishes/Tetrapods ^ML]”, the kon in assay [1] (stopped-flow, 10°C) came to 2.46e+07 ± 800000 M⁻¹ s⁻¹. The koff in assay [1] (MDM2 D. rerio, 10°C) is 2.3 ± 0.2 s⁻¹. In the case of “Ac-SQETFSDLWNML [p53TADReptiles/Mammals ^AltAll]”, in assay [3] (MDM2 H. sapiens), the koff was determined as 0.36 ± 0.01 s⁻¹. In assay [3], the kon came out at 3.8e+07 ± 2e+06 M⁻¹ s⁻¹. In the case of “GPMGMSDEPTLSQLSFSQELSSSWQLMIDEITQGKFNTNEDEGTAIYSYSEQNPDDRYLMRPNEPQYISAGYPDGQVGQLPREFAVNQIPSPRTFSDNVSSSADKAREAYYGQAVNGVSAETSPPLKRDP [full-length p53TAD, residues 1–126 of T. adhaerens p53]”, the results for the “K D” value in assay [4], in assay [4] (listed as full‐length p53TAD) and in assay [4] (listed as full‐length p53TAD from T. adhaerens) were “did not show binding”, “failed to displace” and “no binding”, respectively.
